Results reported in PMC7822874, “Chemoprotective antimalarials identified through quantitative high-throughput screening of Plasmodium blood and liver stage parasites” (Scientific Reports, 2021).
Where “and” joins values, the source holds several entries; their conditions need not be identical. Equal entries are not always repeated.

Key:
[1] = tested on: T1, Plasmodium falciparum Dd2-attB-ScDHODH (transgenic line expressing yeast DHODH), asexual blood stages; experiment: organism not typed; design: replicate k of 3 (each line is one of three independent assays; the three lines of one compound and parasite line follow each other)
T1 construct: Dd2-attB-ScDHODH, the transgenic line that expresses yeast DHODH
Summary of the method: (§1)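 We compare activity in parasites carrying fumarate-using yeast DHODH with that in the parental line; mETC or parasite DHODH inhibitors are bypassed by this enzyme. Data come from three independent assays, analysed by two-sided Student's t-tests.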

[2] = tested on: T2, Plasmodium falciparum Dd2-attB (parental line), asexual blood stages; experiment: microbe, parasite or virus in culture; design: replicate k of 3 (each line is one of three independent assays; the three lines of one compound and parasite line follow each other); settings: n = 1; for Individual replicates / Log AC50 (M): 72 h; for AC50: Plasmodium falciparum, DD2, 72 h, read-out: Individual replicates / Log AC50 (converted)
T2 construct: Dd2-attB, the isogenic parental line
Summary of the method: as §1

[3] = 72 h; n = 1; read-out: Individual replicates / Log AC50 (converted)

| SMILES | Individual replicates / Log AC50 (M) ([1]; 72 h, n = 1) | AC50 [1, 3] [µM] | Individual replicates / Log AC50 (M) [2] | AC50 [2] [µM] | Individual replicates / Log AC50 (M) ([1]; 72 h; n = 1) |
| --- | --- | --- | --- | --- | --- |
| COC(=O)c1ccnc2sc(N(CCCN3CCCCC3)c3ccccc3Cl)nc12 [NCGC00480953-01] | -5.0986 Log AC50 (M) | 4.48 | -5.2486 Log AC50 (M) and -5.3486 Log AC50 (M) | 4.48 |  |
| O=C(Nc1ccccn1)c1ccc(-c2cc(O)c3ncccc3c2)cc1 [NCGC00247739-01] | -4.7986 Log AC50 (M) | 8.94 | -4.9986 Log AC50 (M) and -4.8986 Log AC50 (M) | 7.97 |  |
| N#CNC(=O)c1ccnc2cc(C(OCCN3CCCCC3)c3ccccc3Cl)sc12 (stereo not shown) [NCGC00483126-01] | -4.7986 Log AC50 (M) | 15.9 | -4.8986 Log AC50 (M) and -4.7486 Log AC50 (M) | 14.2 |  |
| CN1CCC(CCOC(c2cc3nccc(C(=O)O)c3[nH]2)c2ccccc2Cl)C1 (stereo not shown) [NCGC00481023-01] |  | 8.94 |  | 12.6 |  |
| O=C(O)c1ccc(O)c2ncc(N3CCOCC3)cc12 [NCGC00241036-02] |  | 10 |  | 14.2 |  |
| O=C(O)c1ccnc2cc(-c3nc4ccccc4n3CCN3CCCCC3)sc12 [NCGC00485470-01] | -5.2486 Log AC50 (M) | 7.1 | -5.2986 Log AC50 (M) and -5.1986 Log AC50 (M) | 6.33 |  |
| Cc1ccnc(NCc2ccc(O)c3ncccc23)c1 [NCGC00241032-01] | -5.0486 Log AC50 (M) | 14.2 | -4.8486 Log AC50 (M) and -4.7486 Log AC50 (M) | 17.8 |  |
| O=C(c1cccc(-c2cc(O)c3ncccc3c2)c1)N1CCOCC1 [NCGC00244534-01] | -5.0486 Log AC50 (M) | 14.2 | -5.0486 Log AC50 (M) and -5.0986 Log AC50 (M) | 12.6 |  |
| CN1CCN(CCCNC(=O)c2cccc(-c3cc(O)c4ncccc4c3)c2)CC1 [NCGC00247740-01] | -4.7486 Log AC50 (M) and -4.7986 Log AC50 (M) | 17.8 | -4.7986 Log AC50 (M) and -4.7486 Log AC50 (M) | 15.9 |  |
| Cc1nn2c(c1-c1ccccc1-c1ccccc1)N(CCCc1ccccc1)CCC2 [NCGC00500005-01] | -5.0486 Log AC50 (M) and -4.8986 Log AC50 (M) | 8.94 | -5.0486 Log AC50 (M) | 7.97 |  |
| COc1ccc(NC2=C(c3ccc(C(F)(F)F)cc3)C(=O)c3ccccc32)cc1 [NCGC00107310-02] | -5.1486 Log AC50 (M) and -5.2986 Log AC50 (M) |  | -6.3986 Log AC50 (M) and -6.2986 Log AC50 (M) and -6.5486 Log AC50 (M) |  |  |
| O=C(O)c1ccc(N(CCN2CCC(F)(F)CC2)c2ccc(F)cc2)cn1 [NCGC00390011-01] |  | 17.8 | -4.7486 Log AC50 (M) | 20 |  |
| COC(=O)c1ccnc2cc(C(OCCC3CCCCC3)c3ccccc3Cl)[nH]c12 (stereo not shown) [NCGC00421833-01] | -4.7486 Log AC50 (M) and -4.7986 Log AC50 (M) | 17.8 | -4.7986 Log AC50 (M) and -4.7486 Log AC50 (M) | 15.9 |  |
| O=C(O)c1ccc(O)c2ncc(-c3ccc(N4CCOCC4)cc3)cc12 [NCGC00241754-01] |  | 14.2 | -4.7986 Log AC50 (M) | 15.9 |  |
| O=C(O)c1ccnc2cc(C(OCCN3CCOCC3)c3ccccc3Cl)[nH]c12 (stereo not shown) [NCGC00421890-01] | -5.3986 Log AC50 (M) and -5.2486 Log AC50 (M) | 5.03 | -5.1986 Log AC50 (M) | 5.64 |  |
| Cc1ccc(NCc2ccc(O)c3ncccc23)c(F)c1 [NCGC00184895-01] | -4.7486 Log AC50 (M) | 15.9 | -4.7986 Log AC50 (M) | 17.8 |  |
| COC(=O)c1ccnc2cc(C(OCCN3CCCCC3)c3ccccc3Cl)[nH]c12 (stereo not shown) [NCGC00420857-01] | -5.0986 Log AC50 (M) | 5.03 | -5.2986 Log AC50 (M) and -5.1986 Log AC50 (M) | 4.48 |  |

| SMILES | Individual replicates / Log AC50 (M) ([1]; 72 h, n = 1) | AC50 [1, 3] [µM] | Individual replicates / Log AC50 (M) [2] | AC50 [2] [µM] | Individual replicates / Log AC50 (M) ([1]; 72 h; n = 1) |
| --- | --- | --- | --- | --- | --- |
| Cc1nn2c(c1-c1ccccc1-c1ccccc1)N(CC1CC1)CCC2 [NCGC00420435-02] | -4.7486 Log AC50 (M) and -4.8486 Log AC50 (M) | 15.9 | -4.7986 Log AC50 (M) and -4.8486 Log AC50 (M) | 14.2 |  |
| CCOC(=O)CCNc1cc(N2CCc3ccccc3CC2)nc(-c2ccccn2)n1 [NCGC00344626-04] | -5.2986 Log AC50 (M) and -4.9486 Log AC50 (M) |  | -5.2986 Log AC50 (M) and -5.2486 Log AC50 (M) and -5.0486 Log AC50 (M) |  |  |
| Oc1ccc(CNc2ccc(C(F)(F)F)cc2F)c2cccnc12 [NCGC00184889-01] |  | 17.8 |  | 20 |  |
| CCCN1C(CC(C)C)=N[S+](=O)([O-])c2cc(NC(=O)c3cccs3)ccc21 [NCGC00473217-02] | -6.3986 Log AC50 (M) and -6.0986 Log AC50 (M) and -6.3486 Log AC50 (M) |  | -7.0986 Log AC50 (M) and -6.8486 Log AC50 (M) and -6.8986 Log AC50 (M) |  |  |
| CN1CCC(CNCc2nccc3c(=O)[nH]c(COc4ccc(Cc5ccccc5)cc4)nc23)C1 (stereo not shown) [NCGC00489856-01] |  | 17.8 | -4.7986 Log AC50 (M) and -4.8486 Log AC50 (M) | 15.9 |  |
| O=C(c1ccc(-c2cnc3c(O)cccc3c2)cc1)N1CCNCC1 [NCGC00189507-01] | -4.7986 Log AC50 (M) | 10 | -4.8986 Log AC50 (M) and -4.9986 Log AC50 (M) | 14.2 |  |
| Oc1ccc(CNc2ccc(F)cc2Cl)c2cccnc12 [NCGC00184893-01] | -4.7986 Log AC50 (M) | 14.2 | -4.7986 Log AC50 (M) and -4.8486 Log AC50 (M) | 15.9 |  |
| Cc1cccc(N2CCN(C(=O)Cn3ncc4c3-c3ccccc3OC4)CC2)c1C [NCGC00112661-03] | -4.8986 Log AC50 (M) and -5.0986 Log AC50 (M) |  | -4.9486 Log AC50 (M) and -4.7486 Log AC50 (M) |  |  |
| O=C(NCCCN1CCCCCC1)c1cccc(-c2cc(O)c3ncccc3c2)c1 [NCGC00247760-01] |  | 15.9 | -4.8986 Log AC50 (M) and -4.7486 Log AC50 (M) | 20 |  |
| Cc1nn2c(c1-c1ccccc1-c1ccccc1)N(Cc1ccc(C(=O)O)s1)CCC2 [NCGC00420478-02] | -4.7486 Log AC50 (M) | 14.2 | -4.8986 Log AC50 (M) and -4.7986 Log AC50 (M) | 17.8 |  |
| CN1CCN(C2CCN(Cc3ccc(O)c4ncccc34)CC2)CC1 [NCGC00183373-01] |  | 15.9 |  | 17.8 |  |
| C/C(=N\NC(=S)N1CCN(c2ccccn2)CC1)c1ccccn1 [NCGC00386445-01] |  | 4.48 | -5.3486 Log AC50 (M) | 4.48 | -5.3486 Log AC50 (M) |
| Cc1cccc2nc(-c3ccccn3)c(Nc3ccc(F)cc3)n12 [NCGC00106061-03] | -5.2986 Log AC50 (M) and -5.0986 Log AC50 (M) | 5.64 | -5.2986 Log AC50 (M) | 5.03 |  |
| CCOC(=O)c1ccc(O)c2ncc(-c3ccc(C(=N)N)cc3)cc12 [NCGC00241050-01] |  | 20 |  | 17.8 | -4.6986 Log AC50 (M) |
| CCCCN1CCCc2cc(CN(CCCN3CCOCC3)C(=O)Nc3ccc(CC)cc3)ccc21 [NCGC00140595-02] | -5.0486 Log AC50 (M) | 7.97 | -5.0986 Log AC50 (M) | 7.97 |  |
| NC(=O)c1cccc(-c2cnc3c(O)ccc(C(=O)O)c3c2)c1 [NCGC00241055-01] |  | 14.2 |  | 15.9 |  |
